Read-outs that look alike come from different tables or passages of the source.
Legend:
U2932 cells = assay: Alamar Blue cytotoxicity study; assay type: cell-based, human; conditions: for IC50: Homo sapiens; for Combination Index (Chou-Talalay): 120 h
Method: (§1) Cells were treated with either Humalutin, olaparib or a combination of both and seeded into 96 well-plates. At each time point after treatment, cells were incubated with Alamar Blue (Thermo Fisher, DALL1100) for 4 hours and fluorescence measurements were performed using a multiplate reader Fluoroskan ascent FL to assess cell proliferation and viability. All experiments were done in duplicates using 2 samples in each experiment. Data were normalized to the untreated controls.
(§2) Cells were incubated with 0.25, 0.5, 1, 2.5 or 5 μg/ml of Humalutin in cell culture flasks and incubated at 37° C./5% CO2. After 18-20 hours cells were washed and resuspended in fresh medium. Cell bound activity after washing was measured using a calibrated gamma detector (Cobra II auto-gamma detector, Packard Instrument Company, Meriden, Conn., USA). Cell concentration and viability was also measured after washing using Guava ViaCount Cell Dispersal Reagent for Flow Cytometry (Merck GaA, Darmstadt, Germany) and measured in a Guava EasyCyte 12HT (Merck KGaA, Darmstadt, Germany) to determine how well the cells survived the incubation. Cells were seeded in 96 well plates.
Cells were seeded in 96 well plates pre-coated with from 1 to 100 μM olaparib in 0.2 ml medium and incubated at 37° C./5% CO2 for 72 hours before the cytotoxic effect was measured using alamar blue cell viability assay.
Cells were incubated with either 0, 0.5 μg/ml or 1 μg/ml Humalutin and the same procedure as described before for treatment with humalutin alone and olaparib alone was followed. Concentrations of olaparib used were between 1 and 100 μM.
The Chou-Talalay model was used for synergy calculations using the Compusyn software. R (goodness of fit) was calculated for the individual treatments and should be over 0.90 in in vitro culture experiments in order to use the calculated combination index (CI). The CI is an indication of synergy: 0-0.9 is considered synergy. Synergysm grading was used as described in WO2006004917A2. […]
as §2, with “viability were” for “viability was”, “plates. Alamar blue viability measurements were performed 120 h after seeding.” for “plates.”
Cells were incubated with either 0 (control), 0.5 μg/ml or 1 μg/ml Humalutin for 18 to 20 hours. Cells were then washed and resuspended in fresh medium.

SUDHL-6 cells = assay: Alamar Blue cytotoxicity study; assay type: cell-based, human; conditions: for Combination Index (Chou-Talalay): 120 h
Method: as §1, with “venetoclax” for “olaparib”
as §2, with “viability were” for “viability was”, “plates. Alamar blue viability measurements were performed 120 h after seeding.” for “plates.”
Cells were incubated with either 0 (control), 0.5 μg/ml or 1 μg/ml Humalutin for 18 to 20 hours. Cells were then washed and resuspended in fresh medium. Cell bound activity after washing was measured using a calibrated gamma detector (Cobra II auto-gamma detector, Packard Instrument Company, Meriden, Conn., USA). Cell concentration and viability were also measured after washing using Guava ViaCount Cell Dispersal Reagent for Flow Cytometry (Merck GaA, Darmstadt, Germany) and measured in a Guava EasyCyte 12HT (Merck KGaA, Darmstadt, Germany) to determine how well the cells survived the incubation. […] Cytotoxic effect was measured using Alamar blue cell viability assay.
The Chou-Talalay model was used for synergy calculations using the Compusyn software. R (goodness of fit) was calculated for the individual treatments and should be over 0.90 in in vitro culture experiments in order to use the calculated combination index (CI) with confidence. The CI is an indication of synergy: 0-0.9 is considered synergy. Synergism grading was used as described in Table 13, WO2006004917A2.

[1] = tested on: CD3-/CD20+ cells from biopsies of patients with DLBCL or FL; conditions: 4 patient biopsies, 18 h exposure, day 4
Method: Frozen human biopsies from patients with DLBCL or FL were obtained from CHU de Montpellier Plateforme CRB/Hemodiag. Typically, cells were defrosted and grown at 0.5×10^6 cells/mL in 12-well plates at 37° C. in a humidified atmosphere of 95% air/5% CO2. Culture medium consisted of RPMI medium supplemented with 20% heat-inactivated fetal bovine serum, antibiotics ([…] penicillin and 100 μg/ml streptomycin), 50 ng/mL CD40L (His tagged; R&D system) and 5 μg/mL anti-his-tag antibody (R&D system, Abingdon, UK). After 5 h, they were treated with increasing amount of ^177Lu-lilotomab (0 to 6 MBq/mL) combined or not with MK-1775 or PD-166285 (1 μM) for 18 h. At the end of incubation, 50% of cells were analyzed by flow cytometry and the remaining cells were collected, centrifuged and washed twice with medium before being seeded in 12-well plates for 3 days more. After 3 days, cells were collected and analyzed by flow cytometry. Live/Dead fixable dead cell stain (Fisher scientific), anti-CD45, CD3, CD19, CD20 and CD10 mAbs (BD Pharmigen, Le pont de Claix, France) and anti-Kappa mAb (DAKO, Les Ulis, France) were used and analyzed by flow cytometry to determine quantity and proportion of tumor and non-tumor cells alive.

Q: How did the IC50 (U2932 cells; read-out: IC50 at 120 h, U2932, 120 h incubation after seeding) turn out when CC1(C)CCC(CN2CCN(c3ccc(C(=O)NS(=O)(=O)c4ccc(NCC5CCOCC5)c([N+](=O)[O-])c4)c(Oc4cnc5[nH]ccc5c4)c3)CC2)=C(c2ccc(Cl)cc2)C1 [venetoclax] was run?
A: 1140 nM

Q: What about the IC50 (U2932 cells; U2932, 72 h incubation after seeding, read-out: IC50) of the same molecule?
A: 4150 nM

Q: What about the “Combination Index (Chou-Talalay)” value (U2932 cells; U2932, drug 10 μM + Humalutin 0.5 μg/ml) of the same molecule?
A: 0.50

Q: What about the “Combination Index (Chou-Talalay)” value (U2932 cells; U2932, drug 10 μM + Humalutin 1 μg/ml) of the same molecule?
A: 0.09

Q: What about the “Combination Index (Chou-Talalay)” value (U2932 cells; U2932, drug 40 μM + Humalutin 0.5 μg/ml) of the same molecule?
A: 0.91

Q: What about the “Combination Index (Chou-Talalay)” value (U2932 cells; U2932, drug 40 μM + Humalutin 1 μg/ml) of the same molecule?
A: 0.23

Q: And the “Combination Index (Chou-Talalay)” value (U2932 cells; U2932, drug 80 μM + Humalutin 0.5 μg/ml)?
A: 0.54

Q: And the “Combination Index (Chou-Talalay)” value (U2932 cells; U2932, drug 80 μM + Humalutin 1 μg/ml)?
A: 0.12

Q: And the “Combination Index (Chou-Talalay)” value (U2932 cells; U2932, drug 100 μM + Humalutin 0.5 μg/ml)?
A: 0.49

Q: What about the “Combination Index (Chou-Talalay)” value (U2932 cells; U2932, drug 100 μM + Humalutin 1 μg/ml) of the same molecule?
A: 0.07

Q: What about the “Combination Index (Chou-Talalay)” value (U2932 cells; U2932, venetoclax 0.25 + Humalutin 0.5 μg/ml) of the same molecule?
A: 0.02

Q: And the “Combination Index (Chou-Talalay)” value (U2932 cells; U2932, venetoclax 0.25 + Humalutin 1 μg/ml)?
A: 0.12

Q: What about the “Combination Index (Chou-Talalay)” value (U2932 cells; U2932, venetoclax 0.5 + Humalutin 0.5 μg/ml) of the same molecule?
A: 0.01

Q: What about the “Combination Index (Chou-Talalay)” value (U2932 cells; U2932, venetoclax 0.5 + Humalutin 1 μg/ml) of the same molecule?
A: 0.10

Q: And the “Combination Index (Chou-Talalay)” value (U2932 cells; U2932, venetoclax 1 + Humalutin 0.5 μg/ml)?
A: 0.03

Q: And the “Combination Index (Chou-Talalay)” value (U2932 cells; U2932, venetoclax 1 + Humalutin 1 μg/ml)?
A: 0.08

Q: What about the “Combination Index (Chou-Talalay)” value (U2932 cells; U2932, venetoclax 2.5 + Humalutin 0.5 μg/ml) of the same molecule?
A: 0.03

Q: And the “Combination Index (Chou-Talalay)” value (U2932 cells; U2932, venetoclax 2.5 + Humalutin 1 μg/ml)?
A: 0.06

Q: What about the IC50 (SUDHL-6 cells; Homo sapiens, SU-DHL-6, read-out: IC50 at 120 h, SUDHL-6, 120 h incubation after seeding) of the same molecule?
A: 1160 nM

Q: And the “Combination Index (Chou-Talalay)” value (SUDHL-6 cells; SUDHL-6, venetoclax 0.25 + Humalutin 0.5 μg/ml)?
A: 0.63

Q: And the “Combination Index (Chou-Talalay)” value (SUDHL-6 cells; SUDHL-6, venetoclax 0.25 + Humalutin 1 μg/ml)?
A: 0.82

Q: And the “Combination Index (Chou-Talalay)” value (SUDHL-6 cells; SUDHL-6, venetoclax 0.5 + Humalutin 0.5 μg/ml)?
A: 0.14

Q: What about the “Combination Index (Chou-Talalay)” value (SUDHL-6 cells; SUDHL-6, venetoclax 0.5 + Humalutin 1 μg/ml) of the same molecule?
A: 0.28

Q: What about the “Combination Index (Chou-Talalay)” value (SUDHL-6 cells; SUDHL-6, venetoclax 1 + Humalutin 0.5 μg/ml) of the same molecule?
A: 0.71

Q: What about the “Combination Index (Chou-Talalay)” value (SUDHL-6 cells; SUDHL-6, venetoclax 1 + Humalutin 1 μg/ml) of the same molecule?
A: 0.41

Q: And the “Combination Index (Chou-Talalay)” value (SUDHL-6 cells; SUDHL-6, venetoclax 2.5 + Humalutin 0.5 μg/ml)?
A: 0.47

Q: And the “Combination Index (Chou-Talalay)” value (SUDHL-6 cells; SUDHL-6, venetoclax 2.5 + Humalutin 1 μg/ml)?
A: 0.41

B1: Lutetium-177 [^177Lu]-lilotomab satetraxetan (conjugate, chains of the INN, looked up)
VH: EIQLQQSGPELVKPGASVKVSCKASGYSFTDYNMYWVKQSHGKSLEWIGYIDPYNGDTTYNQKFKGKATLTVDKSSSTAFIHLNSLTSEDSAVYYCARSPYGHYAMDYWGQGTSVTVSS
VL: DIVMTQSHKLLSTSVGDRVSITCKASQDVSTAVDWYQQKPGQSPKLLINWASTRHTGVPDRFTGSGSGTDYTLTISSMQAEDLALYYCRQHYSTPFTFGSGTKLEIK
modifications: 177Lu satetraxetan chelator conjugate
Q: For B1, which “Proportion of tumor cells” value [1] is on record?
A: reduced the proportion of tumor cells
